Source: US20080221132A1, “Multi-Functional Small Molecules as Anti-Proliferative Agents” (priority 2006, published 2008)

Tests used:
Pancreas_BxPC3 = experiment: Cell proliferation assay (ATPlite), BxPC3; type: cell-based; conditions: Homo sapiens, BXPC-3; TABLE C; 72 hours, 0.5% fetal bovine serum, ATP content; read-out: IC50 grading, Pancreas_BxPC3
Method: (§1) A representative number of compounds were assayed against several different cell lines using the cell proliferation assay:
(§2) Cell Proliferation Assay:
(§3) Cancer cell lines were plated at 5,000 to 10,000 per well in 96-well flatted bottomed plates with various concentration of compounds. The cells were incubated with compounds for 72 hours in the presence of 0.5% of fetal bovine serum. Growth inhibition was accessed by adenosine triphosphate (ATP) content assay using Perkin Elmer ATPlite kit. ATPlite is an ATP monitoring system based on firefly luciferase. Briefly, 25 μl of mammalian cell lysis solution was added to 50 μl of phenol red-free culture medium per well to lyse the cells and stabilize the ATP. 25 μl of substrate solution was then added to the well and subsequently the luminescence was measured.

Pancreas_CFPAC = experiment: Cell proliferation assay (ATPlite), CFPAC; type: cell-based; conditions: TABLE C; 72 hours, 0.5% fetal bovine serum, ATP content; read-out: IC50 grading, Pancreas_CFPAC
Method: as §1, §2, §3

Pancreas_HPAC = experiment: Cell proliferation assay (ATPlite), HPAC; type: cell-based; conditions: Homo sapiens, TABLE C, 72 hours, 0.5% fetal bovine serum, ATP content, read-out: IC50 grading, Pancreas_HPAC
Method: as §1, §2, §3

Pancreas_MiaPaCa2 = experiment: Cell proliferation assay (ATPlite), MiaPaCa2; type: cell-based; conditions: Homo sapiens, MIA PaCa-2; TABLE C; 72 hours, 0.5% fetal bovine serum, ATP content; read-out: IC50 grading, Pancreas_MiaPaCa2
Method: as §1, §2, §3

Pancreas_PANC1 = experiment: Cell proliferation assay (ATPlite), PANC1; type: cell-based; conditions: Homo sapiens, PANC-1; TABLE C; 72 hours, 0.5% fetal bovine serum, ATP content; read-out: IC50 grading, Pancreas_PANC1
Method: as §1, §2, §3

[1] = test system: HDAC (HeLa nuclear extract); experiment: HDAC fluorimetric assay kit (AK-500, Biomol), HeLa nuclear extract; type: biochemical; conditions: TABLE 1-B, Section 1 compounds; read-out: HDAC (IC50 grading)
Method: (§4) HDAC inhibitors were screened using an HDAC fluorimetric assay kit (AK-500, Biomol, Plymouth Meeting, Pa.). […] Each assay was setup as follows: Defrosted all kit components and kept on ice until use. […] Prepared dilutions of Trichostatin A (TSA, positive control) and tested compounds in assay buffer (5× of final concentration). Diluted Fluor de Lys™ Substrate in assay buffer to 100 uM (50 fold=2× final). Diluted Fluor de Lys™ developer concentrate 20-fold (e.g. 50 μl plus 950 μl Assay Buffer) in cold assay buffer. Second, diluted the 0.2 mM Trichostatin A 100-fold in the 1× Developer (e.g. 10 μl in 1 ml; final Trichostatin A concentration in the 1× Developer=2 μM; final concentration after addition to HDAC/Substrate reaction=1 μM). Added Assay buffer, diluted trichostatin A or test inhibitor to appropriate wells of the microtiter plate. Added diluted HeLa extract or other HDAC sample to all wells except for negative controls.
HDAC inhibitors were screened using an HDAC fluorimetric assay kit (AK-500, Biomol, Plymouth Meeting, Pa.).
Each assay was setup as follows: Defrosted all kit components and kept on ice until use. […] Prepared dilutions of Trichostatin A (TSA, positive control) and tested compounds in assay buffer (5× of final concentration). Diluted Fluor de Lys™ Substrate in assay buffer to 100 uM (50 fold=2× final). Diluted Fluor de Lys™ developer concentrate 20-fold (e.g. 50 μl plus 950 μl Assay Buffer) in cold assay buffer. Second, diluted the 0.2 mM Trichostatin A 100-fold in the 1× Developer (e.g. 10 μl in 1 ml; final Trichostatin A concentration in the 1× Developer=2 μM; final concentration after addition to HDAC/Substrate reaction=1 μM). Added Assay buffer, diluted trichostatin A or test inhibitor to appropriate wells of the microtiter plate. Added diluted HeLa extract or other HDAC sample to all wells except for negative controls.
HDAC inhibitors is screened using an HDAC fluorimetric assay kit (AK-500, Biomol, Plymouth Meeting, Pa.).
Each assay is setup as follows: Defrost all kit components and kept on ice until use. […] Prepare dilutions of Trichostatin A (TSA, positive control) and tested compounds in assay buffer (5× of final concentration). Dilute Fluor de Lys™ Substrate in assay buffer to 100 uM (50 fold=2× final). Dilute Fluor de Lys™ developer concentrate 20-fold (e.g. 50 μl plus 950 μl Assay Buffer) in cold assay buffer. Second, dilute the 0.2 mM Trichostatin A 100-fold in the 1× Developer (e.g. 10 μl in 1 ml; final Trichostatin A concentration in the 1× Developer=2 μM; final concentration after addition to HDAC/Substrate reaction=1 μM). Add Assay buffer, dilute trichostatin A or test inhibitor to appropriate wells of the microtiter plate. Add diluted HeLa extract or other HDAC sample to all wells except for negative controls.
as §4, with “assay buffer)” for “Assay Buffer)”, “assay” for “Assay”
CDK2/cyclinE: 0.5 nM CDK2/cyclinE and 5 μM Histon H1 are in the reaction buffer plus 1 μM ATP and 1% DMSO final. Incubate for 2 hours at room temperature. […] Incubate for 2 hours at room temperature.

[2] = test system: Colon_HCT116 (HCT116, colon cancer); experiment: Cell proliferation assay (ATPlite), HCT116; type: cell-based; conditions: Homo sapiens, HCT-116; TABLE C; 72 hours, 0.5% fetal bovine serum, ATP content; read-out: IC50 grading, Colon_HCT116
Method: as §1, §2
as §3, with “The cells were incubated with compounds for 72 hours in the presence of 0.5% of fetal bovine serum.” left out

Row | SMILES | melting point | IC50 (Pancreas_BxPC3) [nM] | IC50 (Pancreas_CFPAC) [nM] | IC50 (Pancreas_HPAC) [nM] | IC50 (Pancreas_MiaPaCa2) [nM] | IC50 (Pancreas_PANC1) [nM] | IC50 [1] [nM] | also measured
1 | CN(C)CC[C@H](CSc1ccccc1)Nc1ccc(S(=O)(=O)NC(=O)c2ccc(N3CCN(Cc4ccccc4-c4ccc(Cl)cc4)CC3)c(NC(=O)CCCCC(=O)NO)c2)cc1[N+](=O)[O-] [Compound 8, (R)—N^1-(2-(4-((4′-Chlorobiphenyl-2-yl)methyl)piperazin-1-yl)-5-(4-(4-(dimethylamino)-1-(phenylthio)butan-2-ylamino)-3-nitrophenylsulfonylcarbamoyl)phenyl)-N^6-hydroxyadipamide] | 150 °C |  |  |  |  |  |  | 
2 | Nc1ncnc2c1nc(Sc1cc3c(cc1Br)OCO3)n2CC(=O)NO [Compound 1, 2-(6-amino-8-(6-bromobenzo[d][1,3]dioxol-5-ylthio)-9H-purin-9-yl)-N-hydroxyacetamide] | 230 °C (dec.) |  |  |  |  |  |  | 
3 | Cc1[nH]c(/C=C2\C(=O)Nc3ccc(F)cc32)c(C)c1C(=O)NCCCCCC(=O)NO [Compound 4, N-(5-(hydroxycarbamoyl)pentyl)5-((Z)-(5-fluoro-2-oxoindolin-3-ylidene)methyl)-2,4-dimethyl-1H-pyrrole-3-carboxamide] | 209.7 °C (dec.) |  |  |  |  |  |  | 
4 | CC(C)(C)c1cnc(CSc2cnc(NC(=O)C3CCN(CCCCCC(=O)NO)CC3)s2)o1 [Compound 3, N-(5-((5-tert-butyloxazol-2-yl)methylthio)thiazol-2-yl)-1-(6-(hydroxyamino)-6-oxohexyl)piperidine-4-carboxamide] | 127 to 130 °C |  |  |  |  |  |  | 
5 | COc1cc2ncnc(N[C@H](C)c3ccccc3)c2cc1OCCCCCC(=O)NO [Compound 77, (R)—N-hydroxy-6-(7-methoxy-4-(1-phenylethylamino)quinazolin-6-yloxy)-hexanamide] |  | 1000 to 10000 | 1000 to 10000 | > 10000 | 100 to 1000 | > 10000 |  | 
6 | C#Cc1cc(Nc2ncnc3cc(O)c(OCCCCCCC(=O)NO)cc23)ccc1O [Compound 208] |  |  |  |  |  |  | < 100 | 
7 | COCCOc1cc2ncnc(Nc3ccc(F)c(Cl)c3)c2cc1NC(=O)CCCCCCC(=O)NO [Compound 70, N^1-(4-(3-chloro-4-fluorophenylamino)-7-(2-methoxyethoxy)quinazolin-6-yl)-N^8-hydroxyoctanediamide] |  | 1000 to 10000 | 1000 to 10000 | > 10000 | 1000 to 10000 | 1000 to 10000 |  | 
8 | C[C@@H](Nc1ncnc2[nH]c(-c3ccc(OCC(=O)NO)cc3)cc12)c1ccccc1 [Compound 17, (R)—N-hydroxy-2-(4-(4-(1-phenylethylamino)-7H-pyrrolo[2,3-d]pyrimidin-6-yl)phenoxy)acetamide] | 116.8 to 126.8 °C |  |  |  |  |  |  | 
9 | COc1cc2ncnc(Nc3ccc(F)c(Cl)c3)c2cc1OCCCOc1ccc(C(=O)NO)cc1 [Compound 202] |  |  |  |  |  |  | 100 to 1000 | 
10 | CC(C)(C)c1cnc(CSc2cnc(NC(=O)C3CCN(CCCC(=O)NO)CC3)s2)o1 [Compound 1, N-(5-((5-tert-butyloxazol-2-yl)methylthio)thiazol-2-yl)-1-(4-(hydroxyamino)-4-oxobutyl)piperidine-4-carboxamide] | 176 to 180 °C |  |  |  |  |  |  | 
11 | Nc1ccc(C(=O)NCCNC(=O)CCCC(=O)NO)cc1 [Compound 29, N-hydroxy-4-(2-(4-aminobenzamido)-ethylcarbamoyl)butanamide] | 158.9 to 159.8 °C |  |  |  |  |  |  | 
12 | O=C(CCCCCCOc1ccc2ncnc(Nc3ccc(F)c(Cl)c3)c2c1)NO [Compound 18] |  | 100 to 1000 | 100 to 1000 | 1000 to 10000 | 100 to 1000 | 100 to 1000 |  | IC50 [2]: 100 to 1000 nM
13 | COc1cc2ncnc(Nc3ccc(F)c(Cl)c3)c2cc1OCCCCCC(C(=O)NO)C(C)C (stereo not shown) [Compound 112] |  |  |  |  |  |  | > 10000 | 
14 | COc1cc2ncnc(Nc3ccc(F)c(Cl)c3)c2cc1OCCOc1ccc(/C=C/C(=O)NO)cc1 [Compound 66] |  | 1000 to 10000 | > 10000 | 1000 to 10000 | 1000 to 10000 | 1000 to 10000 |  | 
15 | C#Cc1cccc(Nc2ncnc3cc(O)c(OCCCCCCC(=O)NO)cc23)c1 [Compound 207] |  |  |  |  |  |  | < 100 | 
16 | COc1cc2ncnc(Nc3ccc(F)c(Cl)c3)c2cc1NC(=O)CCCCCCC(=O)NO [Compound 40] |  | 1000 to 10000 | 1000 to 10000 | 1000 to 10000 | 1000 to 10000 | 1000 to 10000 |  | 
17 | COc1cc2ncnc(Nc3ccc(F)c(Cl)c3)c2cc1OCCCCOc1ccc(C(=O)NO)cc1 [Compound 203] |  |  |  |  |  |  | 100 to 1000 | 
18 | COc1cc2ncnc(Nc3ccc(F)c(Cl)c3)c2cc1Oc1ccc(C#CCCC(=O)NO)cc1 [Compound 204] |  |  |  |  |  |  | 1000 to 10000 | 
19 | COc1cc2ncnc(N[C@H](C)c3ccccc3)c2cc1OCCCCCCC(=O)NO [Compound 79, (R)—N-hydroxy-7-(7-methoxy-4-(1-phenylethylamino)quinazolin-6-yloxy)heptanamide] |  | 1000 to 10000 | 1000 to 10000 | > 10000 | 1000 to 10000 | 1000 to 10000 |  | 
20 | Cc1nc(NCCCCCCC(=O)NO)cc(Nc2ncc(C(=O)Nc3c(C)cccc3Cl)s2)n1 [Compound 24, N-(2-chloro-6-methylphenyl)-2-(6-(7-(hydroxyamino)-7-oxoheptylamino)-2-methylpyrimidin-4-ylamino)thiazole-5-carboxamide] | 150.7 °C (dec.) |  |  |  |  |  |  | 
21 | COc1cc2ncnc(NCc3ccccc3)c2cc1OCCCCCCC(=O)NO [Compound 85, 7-(4-(Benzylamino)-7-methoxyquinazolin-6-yloxy)-N-hydroxyheptanamide] |  | 100 to 1000 | 1000 to 10000 | 1000 to 10000 | 1000 to 10000 | 1000 to 10000 |  | IC50 [2]: 100 to 1000 nM
22 | COc1cc2ncnc(Nc3ccc(F)c(Cl)c3)c2cc1NC(=O)Nc1ccc(C(=O)NO)cc1 [Compound 94] |  |  |  |  |  |  | > 10000 | 
